Data reported in PubChem BioAssay (NCI).
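Method: 48-hour compound exposure of cells in 96-well plates, five concentrations, linear interpolation of endpoints. Abbreviation: GI50, concentration required for 50% inhibition of growth. TGI denotes the concentration required for complete inhibition of growth.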

Experiments:
Test in all cases: growth of human tumour cells (NCI), 48 h
SK-OV-3 ovarian = system: SK-OV-3 ovarian
HCT-116 colon = system: HCT-116 colon
OVCAR-4 ovarian = system: OVCAR-4 ovarian
UACC-257 melanoma = system: UACC-257 melanoma
SF-268 CNS = system: SF-268 CNS
IGROV1 ovarian = system: IGROV1 ovarian
LOX IMVI melanoma = system: LOX IMVI melanoma
HOP-62 NSCLC = system: HOP-62 NSCLC
NCI/ADR-RES ovarian = system: NCI/ADR-RES ovarian
K-562 leukemia = system: K-562 leukemia
COLO 205 colon = system: COLO 205 colon
HOP-92 NSCLC = system: HOP-92 NSCLC
UO-31 renal = system: UO-31 renal
A549 NSCLC = system: A549 NSCLC
SK-MEL-5 melanoma = system: SK-MEL-5 melanoma
SR leukemia = system: SR leukemia
NCI-H522 lung = system: NCI-H522 lung
SN12C renal = system: SN12C renal
T-47D breast = system: T-47D breast
OVCAR-8 ovarian = system: OVCAR-8 ovarian
PC-3 prostate = system: PC-3 prostate
SF-539 CNS = system: SF-539 CNS
786-0 renal = system: 786-0 renal
MOLT-4 leukemia = system: MOLT-4 leukemia
CAKI-1 renal = system: CAKI-1 renal
ACHN renal = system: ACHN renal
NCI-H23 lung = system: NCI-H23 lung
BT-549 breast = system: BT-549 breast
MALME-3M melanoma = system: MALME-3M melanoma
OVCAR-5 ovarian = system: OVCAR-5 ovarian
SF-295 CNS = system: SF-295 CNS
SK-MEL-28 melanoma = system: SK-MEL-28 melanoma
SNB-75 CNS = system: SNB-75 CNS
EKVX NSCLC = system: EKVX NSCLC
HL-60(TB) leukemia = system: HL-60(TB) leukemia
MDA-MB-435 = system: MDA-MB-435
MDA-MB-231 breast = system: MDA-MB-231 breast
DU-145 prostate = system: DU-145 prostate
A498 renal = system: A498 renal
NCI-H226 lung = system: NCI-H226 lung
HCT-15 colon = system: HCT-15 colon
SW-620 colon = system: SW-620 colon
RPMI-8226 leukemia = system: RPMI-8226 leukemia
NCI-H460 lung = system: NCI-H460 lung
CCRF-CEM leukemia = system: CCRF-CEM leukemia
M14 melanoma = system: M14 melanoma
HCC-2998 colon = system: HCC-2998 colon
HS 578T breast = system: HS 578T breast
MCF7 breast = system: MCF7 breast
RXF 393 renal = system: RXF 393 renal
KM12 colon = system: KM12 colon
HT29 colon = system: HT29 colon
U251 CNS = system: U251 CNS
SNB-19 CNS = system: SNB-19 CNS
OVCAR-3 ovarian = system: OVCAR-3 ovarian
UACC-62 melanoma = system: UACC-62 melanoma
TK-10 renal = system: TK-10 renal

`CN(c1ccc(Cl)c(Cl)c1)c1cnc2cc(N)cc(N)c2n1` was tested, and the GI50 (SK-OV-3 ovarian) was 13.6 µM, the TGI (SK-OV-3 ovarian) was 37.8 µM and the GI50 (HCT-116 colon) was 2.31 µM. The TGI (HCT-116 colon) was 4.9 µM, the GI50 (OVCAR-4 ovarian) was 1.71 µM and the TGI (OVCAR-4 ovarian) was 3.32 µM. It also gave a GI50 (UACC-257 melanoma) of 1.81 µM, a TGI (UACC-257 melanoma) of 3.59 µM and a GI50 (SF-268 CNS) of 4.62 µM. The TGI (SF-268 CNS) was 25 µM, the GI50 (IGROV1 ovarian) was 5.27 µM and the TGI (IGROV1 ovarian) was 60.2 µM. The GI50 (LOX IMVI melanoma) was 1.84 µM, the TGI (LOX IMVI melanoma) was 3.74 µM and the GI50 (HOP-62 NSCLC) was 2.91 µM. It also gave a TGI (HOP-62 NSCLC) of 8.07 µM, a GI50 (NCI/ADR-RES ovarian) of 10.6 µM and a TGI (NCI/ADR-RES ovarian) of 30.1 µM. For the same compound, the GI50 (K-562 leukemia) was 4.21 µM, the TGI (K-562 leukemia) was greater than 100 µM and the GI50 (COLO 205 colon) was 1.79 µM. For the same compound, the TGI (COLO 205 colon) was 3.47 µM, the GI50 (HOP-92 NSCLC) was 13.1 µM and the TGI (HOP-92 NSCLC) was 33.4 µM. The GI50 (UO-31 renal) was 3.4 µM, the TGI (UO-31 renal) was 16.6 µM and the GI50 (A549 NSCLC) was 13.7 µM. It also gave a TGI (A549 NSCLC) of 45.4 µM, a GI50 (SK-MEL-5 melanoma) of 1.96 µM and a TGI (SK-MEL-5 melanoma) of 3.71 µM. For the same compound, the GI50 (SR leukemia) was 3.77 µM, the TGI (SR leukemia) was greater than 100 µM and the GI50 (NCI-H522 lung) was 2.58 µM. The TGI (NCI-H522 lung) was 6.5 µM, the GI50 (SN12C renal) was 1.75 µM and the TGI (SN12C renal) was 3.27 µM. The GI50 (T-47D breast) was 2.45 µM, the TGI (T-47D breast) was 8.95 µM and the GI50 (OVCAR-8 ovarian) was 3.48 µM. For the same compound, the TGI (OVCAR-8 ovarian) was 15.4 µM, the GI50 (PC-3 prostate) was 4.15 µM and the TGI (PC-3 prostate) was 18.1 µM. It also gave a GI50 (SF-539 CNS) of 4.71 µM, a TGI (SF-539 CNS) of 17 µM and a GI50 (786-0 renal) of 12.7 µM. For the same compound, the TGI (786-0 renal) was 26 µM, the GI50 (MOLT-4 leukemia) was 3.81 µM and the TGI (MOLT-4 leukemia) was greater than 100 µM. It also gave a GI50 (CAKI-1 renal) of 4.08 µM, a TGI (CAKI-1 renal) of 17.6 µM and a GI50 (ACHN renal) of 4.64 µM. The TGI (ACHN renal) was 16 µM, the GI50 (NCI-H23 lung) was 2.11 µM and the TGI (NCI-H23 lung) was 4.47 µM. For the same compound, the GI50 (BT-549 breast) was 2.73 µM, the TGI (BT-549 breast) was 6.56 µM and the GI50 (MALME-3M melanoma) was 2.19 µM. It also gave a TGI (MALME-3M melanoma) of 4.28 µM, a GI50 (OVCAR-5 ovarian) of 15.7 µM and a TGI (OVCAR-5 ovarian) of 30.5 µM. For the same compound, the GI50 (SF-295 CNS) was 3.58 µM, the TGI (SF-295 CNS) was 12.4 µM and the GI50 (SK-MEL-28 melanoma) was 2.98 µM. It also gave a TGI (SK-MEL-28 melanoma) of 8.06 µM, a GI50 (SNB-75 CNS) of 3.34 µM and a TGI (SNB-75 CNS) of 9.57 µM. The GI50 (EKVX NSCLC) was 3.63 µM, the TGI (EKVX NSCLC) was 11.2 µM and the GI50 (HL-60(TB) leukemia) was 2.26 µM. The TGI (HL-60(TB) leukemia) was 7.56 µM, the GI50 (MDA-MB-435) was 1.91 µM and the TGI (MDA-MB-435) was 3.99 µM. For the same compound, the GI50 (MDA-MB-231 breast) was 3.37 µM, the TGI (MDA-MB-231 breast) was 15.4 µM and the GI50 (DU-145 prostate) was 2.74 µM. It also gave a TGI (DU-145 prostate) of 7.34 µM, a GI50 (A498 renal) of 17.6 µM and a TGI (A498 renal) of 32.3 µM. The GI50 (NCI-H226 lung) was 15.1 µM, the TGI (NCI-H226 lung) was 33.9 µM and the GI50 (HCT-15 colon) was 4.57 µM. It also gave a TGI (HCT-15 colon) of 20.1 µM, a GI50 (SW-620 colon) of 2.04 µM and a TGI (SW-620 colon) of 4.34 µM. The GI50 (RPMI-8226 leukemia) was 3.65 µM, the TGI (RPMI-8226 leukemia) was 26 µM and the GI50 (NCI-H460 lung) was 14.2 µM. The TGI (NCI-H460 lung) was 52.1 µM, the GI50 (CCRF-CEM leukemia) was 2.64 µM and the TGI (CCRF-CEM leukemia) was 8.7 µM. The GI50 (M14 melanoma) was 1.91 µM, the TGI (M14 melanoma) was 3.44 µM and the GI50 (HCC-2998 colon) was 11.5 µM. The TGI (HCC-2998 colon) was 24.5 µM, the GI50 (HS 578T breast) was 2.66 µM and the TGI (HS 578T breast) was 7.36 µM. For the same compound, the GI50 (MCF7 breast) was 2.03 µM, the TGI (MCF7 breast) was 4.93 µM and the GI50 (RXF 393 renal) was 4.19 µM. For the same compound, the TGI (RXF 393 renal) was 40.3 µM, the GI50 (KM12 colon) was 7.2 µM and the TGI (KM12 colon) was 25.8 µM. The GI50 (HT29 colon) was 4.07 µM, the TGI (HT29 colon) was 22 µM and the GI50 (U251 CNS) was 2.62 µM. For the same compound, the TGI (U251 CNS) was 6.86 µM, the GI50 (SNB-19 CNS) was 3.75 µM and the TGI (SNB-19 CNS) was 15.1 µM. For the same compound, the GI50 (OVCAR-3 ovarian) was 2.36 µM, the TGI (OVCAR-3 ovarian) was 10.9 µM and the GI50 (UACC-62 melanoma) was 2.25 µM. The TGI (UACC-62 melanoma) was 4.43 µM, the GI50 (TK-10 renal) was 13.2 µM and the TGI (TK-10 renal) was 27.7 µM.
